# Like-named read-outs stand apart in the source and are kept apart here. Positions of bridges follow the written chain, without caps; N, C: chain ends. Chains are numbered I, II in the order given. No end group written: not given here.
# Columns and labels:
# RAW264.7 cells = experiment: Cell viability, WST-1 assay; details: WST-1, 24 h, peptide up to 40 μM, no peptide = 100% viability
# porcine PBMCs = experiment: Cell viability, WST-1 assay; details: WST-1, 24 h, effect at 20–40 μM, N = 6
# Escherichia coli O78 [1] = format: cell-based
# Procedure: Escherichia coli O78 (E. coli) (Clinical isolate, Zoetis Animal Health, Kalamazoo, MI, USA) was grown in Mueller Hinton Broth (MHB) (Becton Dickinson, USA) to mid-logarithmic phase under constant shaking (200 RPM) at 37 °C. Antimicrobial activity of the peptides was tested using the colony count assay as described before. […] Next, 10-fold dilutions were made, of which 100 μl of the dilutions was spread to tryptic soy agar (TSA) (Oxoid, Basingstoke, UK) plates. Plates were incubated overnight at 37 °C and colonies were counted to determine the number of surviving bacteria. Minimal Bactericidal Concentration (MBC) was defined as ≤100 CFU/ml, the detection limit of the assay.
# (§1) For transmission electron microscopy (TEM), E. coli was used in a higher concentration, (5*10^8 CFU/ml). […] E. coli was incubated with the peptides at MBC concentration or sub-MBC concentration (4x below MBC concentration). After 60 min at 37 °C, fixative (4% glutaraldehyde, 5 mM CaCl2, 10 mM MgCl2 (all from Merck, Darmstadt, Germany) in 0.1 M sodium cacodylate buffer (Sigma) pH 7.4) was added 1:1 to the bacterial-peptide mixture and left for fixation overnight at 4 °C. Samples were washed three times in 0.1 M sodium cacodylate buffer and resuspended in 4% low melting point agarose (Sigma). Samples were post-fixed with 1% osmium tetroxide (Electron Microscopy Sciences (EMS), Hatfield, PA, USA), 1.5% K3Fe(CN)6 (Merck) and 65 mM sodium cacodylate buffer for 2 hours at 4 °C to improve the contrast. After extensive washing with distilled water (5 × 10 min), samples were incubated for 60 min with 0.5% uranyl acetate (EMS) at 4 °C to improve cytoplasmic contrast. After washing with distilled water (3 × 10 min), samples were dehydrated with increasing concentration ethanol and embedded in Epon. […] Morphological effects were quantified for around 100 cells per condition.
# porcine red blood cells = experiment: Hemolysis (heme release); details: peptide 0.63–40 μM, 60 min 37 °C, A405, 0.2% Triton X-100 = 100% lysis, N = 5–7
# [2] = system: LPS-induced NO production by RAW264.7 cells; format: cell-based, murine; details: 100 ng/ml LPS O111:B4, 24 h, Griess assay, compared with full-length PMAP-36
# Escherichia coli O78 [3] = details: for Antibacterial activity against E. coli O78 compared with parent or dimeric counterpart: N = 3–7; for Minimal Bactericidal Concentration (MBC): O78, 3 h
# [4] = system: LPS-induced TNFα secretion by RAW264.7 cells; experiment: LPS stimulation, TNFα release (ELISA); format: cell-based, murine; details: for LPS neutralization, TNFα secretion: compared with full-length PMAP-36
# Escherichia coli O78 [5] = experiment: Transmission electron microscopy of peptide-treated bacteria; format: cell-based; details: TEM, 5*10^8 CFU/ml, 60 min 37 °C
# Procedure: as §1
# [6] = Isothermal titration calorimetry, peptide binding to LPS; set-up: species or system Escherichia coli; details: ITC, 37 °C
# Procedure: Isothermal titration calorimetry (ITC) was performed with the Low Volume NanoITC (TA Instruments-Waters LLC, New Castle, DE, USA) to determine interaction between LPS and the different peptides. 100 μM UltraPure LPS E. coli O111:B4 was diluted in MilliQ, after which 4x dilution in dPBS (Gibco) was made. Peptides were diluted to 800 μM in MilliQ, followed by 4-fold dilution in dPBS. The chamber was filled with 164 μl LPS, the peptide was titrated into the chamber with 1.96 μl every 300 seconds. Experiments were performed at 37 °C and analyzed using the Nano Analyze software (TA instruments-Waters LLC). All experiments were performed 2 times and corrected for buffer in buffer titration, after which the both experiments were averaged. Two independent models were used, except for LL-37 with one independent model fit, to determine the peptide-LPS interaction.
Compound,"LPS neutralization, NO production [2]","Antibacterial activity against E. coli O78 compared with parent or dimeric counterpart (Escherichia coli O78 [3]; 10^6 CFU/ml, 3 h 37 °C)","LPS neutralization, TNFα secretion ([4]; 100 ng/ml LPS O111:B4, 24 h)",Minimal Bactericidal Concentration (MBC) (Escherichia coli O78 [3]),also measured
CC[C@H](C)[C@H](NC(=O)[C@H](CCCCN)NC(=O)[C@H](CCC(=O)O)NC(=O)[C@H](CCCCN)NC(=O)[C@H](CO)NC(=O)[C@H](CCCCN)NC(=O)[C@H](CCCNC(=N)N)NC(=O)[C@H](Cc1ccccc1)NC(=O)[C@H](Cc1ccccc1)NC(=O)[C@H](CC(=O)O)NC(=O)CNC(=O)[C@H](CC(C)C)NC(=O)[C@@H](N)CC(C)C)C(=O)NCC(=O)N[C@@H](CCCCN)C(=O)N[C@@H](CCC(=O)O)C(=O)N[C@@H](Cc1ccccc1)C(=O)N[C@@H](CCCCN)C(=O)N[C@@H](CCCNC(=N)N)C(=O)N[C@H](C(=O)N[C@H](C(=O)N[C@@H](CCC(N)=O)C(=O)N[C@@H](CCCNC(=N)N)C(=O)N[C@H](C(=O)N[C@@H](CCCCN)C(=O)N[C@@H](CC(=O)O)C(=O)N[C@@H](Cc1ccccc1)C(=O)N[C@@H](CC(C)C)C(=O)N[C@@H](CCCNC(=N)N)C(=O)N[C@@H](CC(N)=O)C(=O)N[C@@H](CC(C)C)C(=O)N[C@H](C(=O)N1CCC[C@H]1C(=O)N[C@@H](CCCNC(=N)N)C(=O)N[C@H](C(=O)N[C@@H](CCC(=O)O)C(=O)N[C@@H](CO)C(=O)O)[C@@H](C)O)C(C)C)[C@@H](C)CC)C(C)C)[C@@H](C)CC [LL-37],,,,,"Cytotoxicity against RAW264.7 cells (RAW264.7 cells): mildly cytotoxic; Cytotoxicity against porcine PBMCs (porcine PBMCs): not; MBC at higher density of bacteria (Escherichia coli O78 [1]; 5*10^8 CFU/ml E. coli O78, density used for TEM): 160 µM; Hemolysis of porcine erythrocytes (porcine red blood cells): less than 10%"
"Ac-GRFRRLRKKTRKRLKKIGKVLKWIPPIVGSIPLGS [mP1, monomeric analog of PMAP-36, Cys35 replaced by serine, last amino acid deleted]",as efficient as the full-length peptide,slightly increased compared to their dimeric counterparts,as efficient as the full-length peptide,,
Ac-KIGKVLKWIPPIVGSIPLGS [mP16],,lost its antibacterial activity completely,,,
"Ac-KRLKKIGKVLKWIPPIVGSIPLGCG (disulfide (positions not given here)) [Peptide P12, PMAP-36 analog with N-terminal truncation of 11 amino acids]",as strongly inhibited,slightly more efficient than the full-length peptide,as strongly inhibited,,
"Ac-KRLKKIGKVLKWIPPIVGSIPLGS [mP12, monomeric analog of P12]",strongly reduced LPS neutralizing capacity,identical to P12,strongly reduced LPS neutralizing capacity,,
"Ac-RKKTRKRLKKIGKVLKWIPPIVGSIPLGS [mP7, monomeric analog of P7]",strongly reduced LPS neutralizing capacity,slightly increased compared to their dimeric counterparts,strongly reduced LPS neutralizing capacity,,
I: Ac-GRFRRLRKKTRKRLKKIGKVLKWIPPIVGSIPLGCG / II: Ac-GRFRRLRKKTRKRLKKIGKVLKWIPPIVGSIPLGCG (disulfide I:35-II:35) [PMAP-36],,,,5 to 10 µM,"Morphological changes of E. coli O78 at sub-MBC (Escherichia coli O78 [5]; 4x below MBC (PMAP-36 5 μM, CATH-2 10 μM, LL-37 40 μM)): release of small vesicles; Morphological changes of E. coli O78 at MBC (Escherichia coli O78 [5]; MBC (PMAP-36 20 μM, CATH-2 40 μM, LL-37 160 μM)): DNA and ribosomes were clustered and located close to the inner membrane; Concentration giving significant inhibition of E. coli O78 (Escherichia coli O78 [3]; 10^6 CFU/ml, 3 h 37 °C, vs no peptide control, N = 3–4): 2.5 µM; LPS binding [6]: strong LPS binding capacity; Concentration completely blocking TNFα secretion ([4]; 100 ng/ml LPS O111:B4, 24 h, N = 3): 10 µM; IC50 ([4]; 100 ng/ml LPS O111:B4, RAW264.7, 24 h, read-out: Concentration reducing LPS-induced macrophage activation for 50%): 5 µM; MBC at higher density of bacteria (Escherichia coli O78 [1]; O78, 3 h): 20 µM"
I: Ac-KIGKVLKWIPPIVGSIPLGCG / II: Ac-KIGKVLKWIPPIVGSIPLGCG (disulfide I:20-II:20) [Peptide P16],completely lost its LPS neutralizing capacity,,completely lost its LPS neutralizing capacity,> 40 µM,LPS binding [6]: still bound strongly to LPS
I: Ac-RKKTRKRLKKIGKVLKWIPPIVGSIPLGCG / II: Ac-RKKTRKRLKKIGKVLKWIPPIVGSIPLGCG (disulfide I:29-II:29) [Peptide P7],as strongly inhibited,slightly more efficient than the full-length peptide,as strongly inhibited,,
RFGRFLRKIRRFRPKVTITIQGSARF-NH2 [CATH-2],,,,5 to 10 µM,"MBC at higher density of bacteria (Escherichia coli O78 [1]; O78, 3 h): 40 µM"

# Reference: PMC6423055, “Cathelicidins PMAP-36, LL-37 and CATH-2 are similar peptides with different modes of action” (Scientific Reports, 2019)
